# According to US20260376293A1, “METHODS FOR STUDYING GPR158 PHARMACOLOGY AND IDENTIFICATION OF ITS LIGANDS” (UNIVERSITY OF FLORIDA RESEARCH FOUNDATION, INCORPORATED, priority 2022, published 2026):
# Target: T1, GPR158 Y269A mutant (Homo sapiens, UniProt Q5T848, Y269A)
# T1 sequence (Q5T848 24-1215 Y269A): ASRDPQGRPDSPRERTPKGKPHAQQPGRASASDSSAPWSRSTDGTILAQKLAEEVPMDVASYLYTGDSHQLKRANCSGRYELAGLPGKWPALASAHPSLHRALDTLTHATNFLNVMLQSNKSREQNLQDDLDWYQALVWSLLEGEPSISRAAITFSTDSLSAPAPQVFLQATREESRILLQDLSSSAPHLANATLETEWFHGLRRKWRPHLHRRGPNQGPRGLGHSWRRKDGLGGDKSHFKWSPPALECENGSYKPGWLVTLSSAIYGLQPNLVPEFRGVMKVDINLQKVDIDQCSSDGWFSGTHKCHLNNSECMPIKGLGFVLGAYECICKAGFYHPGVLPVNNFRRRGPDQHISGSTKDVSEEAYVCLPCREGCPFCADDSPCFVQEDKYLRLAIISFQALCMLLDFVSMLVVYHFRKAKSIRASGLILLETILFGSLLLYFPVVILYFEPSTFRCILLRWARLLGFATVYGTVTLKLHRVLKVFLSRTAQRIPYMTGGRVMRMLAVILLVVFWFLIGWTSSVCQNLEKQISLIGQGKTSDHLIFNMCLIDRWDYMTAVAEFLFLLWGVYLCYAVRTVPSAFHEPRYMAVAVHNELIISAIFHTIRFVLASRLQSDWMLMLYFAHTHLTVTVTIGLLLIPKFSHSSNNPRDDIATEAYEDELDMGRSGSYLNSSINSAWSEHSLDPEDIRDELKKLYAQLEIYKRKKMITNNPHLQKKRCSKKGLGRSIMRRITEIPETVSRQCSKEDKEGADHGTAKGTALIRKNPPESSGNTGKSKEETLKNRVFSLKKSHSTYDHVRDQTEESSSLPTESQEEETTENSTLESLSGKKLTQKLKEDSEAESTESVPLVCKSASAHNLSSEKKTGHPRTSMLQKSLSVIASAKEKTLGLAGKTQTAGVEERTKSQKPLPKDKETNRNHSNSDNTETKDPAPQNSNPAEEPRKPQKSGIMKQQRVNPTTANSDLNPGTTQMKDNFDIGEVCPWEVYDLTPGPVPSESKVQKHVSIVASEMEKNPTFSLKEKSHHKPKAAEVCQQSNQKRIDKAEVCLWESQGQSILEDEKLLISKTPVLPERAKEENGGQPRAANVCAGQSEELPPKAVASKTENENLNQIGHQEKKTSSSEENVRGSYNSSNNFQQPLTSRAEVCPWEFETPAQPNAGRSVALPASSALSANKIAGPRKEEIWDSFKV
# Test: Radioligand binding assay on GPR158 mutant Y269A
# Description: FIGS. 11A-11G. Probing Cache domain of GPR158 as a ligand binding site A) Computational docking of glycine into putative ligand binding pocket on GPR158 Cache domain. Glycine and directly interacting residues are shown as sticks. Hydrogen bonds and van der Waals interactions are shown as dotted lines. B) Diagram showing interactions in the docked model of glycine against GPR158 Cache domain. Hydrogen bonds are shown as dashed lines, van der Waals interactions are shown as intersecting semicircles, and the secondary structural context of Ser266 and Tyr269 is shown as an arc. Dagger indicates a residue implicated in glycine binding in 11A. C) Radioligand binding assay of ^3H-glycine in cells expressing GPR158 mutants. Data shown mean±s.e.m. of 3 independent experiments, *p<0.05, ns=p>0.05 one-way ANOVA. D) Functional evaluation of GPR158 mutants in GAP BRET assay. Error bars are mean±s.e.m. of 3 independent experiments in triplicate. *p<0.05, **p<0.01, ***p<0.001, ****p<0.0001, ns=p>0.05, two-way ANOVA Columns with no fill (Ctrl), columns with angled-line fill (Glycine) E) Quantification of glycine inhibitory effect on kGAP normalized to the effect seen with WT receptor. […]
# Whole cell binding was performed using cDNA of GPR158-venus or each GPR158-venus mutant or empty pcDNA3.1+ for ctrl cells. […] Finally radioactivity was measured using the liquid scintillation analyzer Tri-Carb 4910 TR.
smiles,measurement,value
"NCC(=O)O [^3H-glycine, [^3H]-glycine]",[^3H]-glycine binding,near complete loss
